# According to US12077503B2, “Substituted cyclic amides and their use as herbicides” (FMC CORPORATION, priority 2015, dated 2024):
# Where two headings read alike, the source gives them in different places.
# Experiments:
# Assay type in all cases: in vivo
# [1] = test system: ducksalad (Heteranthera limosa); test: Test B flooded paddy test; conditions: Heteranthera limosa, 250 g ai/ha, Flood; 0 to 100 scale where 0 is no effect and 100 is complete control; read-out: Ducksalad plant response rating
# Summary of the method: (§1)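 2-leaf plants; pots flooded 3 cm over soil; cpd added to paddy water; depth held; greenhouse 13–15 d; visual rating vs controls, 0 = no effect, 100 = complete control.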
# [2] = test system: sedge, umbrella (small-flower umbrella sedge, Cyperus difformis); test: Test B flooded paddy test; conditions: Cyperus difformis, 250 g ai/ha, Flood; 0 to 100 scale where 0 is no effect and 100 is complete control; read-out: Sedge, Umbrella plant response rating
# Summary of the method: as §1
# [3] = test system: rice (Oryra sativa); test: Test B flooded paddy test; conditions: Oryza sativa, 250 g ai/ha, Flood; 0 to 100 scale where 0 is no effect and 100 is complete control; read-out: Rice plant response rating
# Summary of the method: as §1
# [4] = test system: barnyardgrass (Echinochloa crus-galli); test: Test B flooded paddy test; conditions: Echinochloa crus-galli, 250 g ai/ha, Flood; 0 to 100 scale where 0 is no effect and 100 is complete control; read-out: Barnyardgrass plant response rating
# Summary of the method: as §1
# [5] = test system: pigweed (Amaranthus retroflexus); test: Test A preemergence; conditions: Amaranthus retroflexus, pre-emergence, 240 h; for pest or weed control at 125 g/ha: 125 g ai/ha; for pest or weed control at 500 g/ha: 500 g ai/ha
# [6] = test system: Kochia (Kochia scoparia); test: Test A postemergence; conditions: Bassia scoparia, post-emergence, 240 h, postemergence; for pest or weed control at 125 g/ha: 125 g ai/ha, visual injury on 0 to 100 scale (0 no effect, 100 complete control); for pest or weed control at 500 g/ha: 500 g ai/ha
# Summary of the method: (§2)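 Preemergence directed soil spray on seeded pots, or postemergence application to plants 2–10 cm, one- to two-leaf. Solvent mixture non-phytotoxic, with surfactant. Scored ~10 d later, visually, 0–100 vs untreated.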
# [7] = test system: ryegrass, Italian (Italian ryegrass, Lolium multiflorum); test: Test A postemergence; conditions: Lolium multiflorum, post-emergence, 240 h, postemergence, read-out: Ryegrass, Italian plant response rating; for pest or weed control at 125 g/ha: 125 g ai/ha, visual injury on 0 to 100 scale (0 no effect, 100 complete control), approx. 10 d
# Summary of the method: as §2
# [8] = test system: pigweed (Amaranthus retroflexus); test: Test A postemergence; conditions: Amaranthus retroflexus, post-emergence, 240 h, postemergence, read-out: Pigweed plant response rating; for pest or weed control at 125 g/ha: 125 g ai/ha, visual injury on 0 to 100 scale (0 no effect, 100 complete control), approx. 10 d
# Summary of the method: as §2
# [9] = test system: wheat (Triticum aestivum); test: Test A postemergence; conditions: Triticum aestivum, post-emergence, 240 h, postemergence, read-out: Wheat plant response rating; for plant injury at 125 g/ha: 125 g ai/ha, visual injury on 0 to 100 scale (0 no effect, 100 complete control), approx. 10 d
# Summary of the method: as §2
# [10] = test system: Galium (catchweed bedstraw, Galium aparine); test: Test A postemergence; conditions: Galium, post-emergence, 240 h, postemergence; for pest or weed control at 125 g/ha: 125 g ai/ha, visual injury on 0 to 100 scale (0 no effect, 100 complete control); for pest or weed control at 500 g/ha: 500 g ai/ha
# Summary of the method: as §2
# [11] = test system: corn (Zea mays); test: Test A postemergence; conditions: Zea mays, post-emergence, 240 h
# Summary of the method: as §2
# [12] = test system: ragweed (common ragweed, Ambrosia elatior); test: Test A postemergence; conditions: Ambrosia artemisiifolia, post-emergence, 240 h, postemergence, read-out: Ragweed plant response rating; for pest or weed control at 125 g/ha: 125 g ai/ha, visual injury on 0 to 100 scale (0 no effect, 100 complete control), approx. 10 d
# Summary of the method: as §2
# [13] = test system: giant foxtail (Setaria faberii); test: Test A postemergence; conditions: Setaria faberi, post-emergence, 240 h, postemergence; for pest or weed control at 125 g/ha: 125 g ai/ha, visual injury on 0 to 100 scale (0 no effect, 100 complete control); for pest or weed control at 500 g/ha: 500 g ai/ha
# Summary of the method: as §2
# [14] = test system: barnyardgrass (Echinochloa crus-galli); test: Test A postemergence; conditions: Echinochloa crus-galli, post-emergence, 240 h; for pest or weed control at 125 g/ha: 125 g ai/ha; for pest or weed control at 500 g/ha: 500 g ai/ha
# Summary of the method: as §2
# [15] = test system: blackgrass (Alopecurus myosuroides); test: Test A postemergence; conditions: Alopecurus myosuroides, post-emergence, 240 h; for pest or weed control at 125 g/ha: 125 g ai/ha; for pest or weed control at 500 g/ha: 500 g ai/ha
# Summary of the method: as §2
# [16] = approx. 10 d, read-out: Kochia plant response rating
# [17] = 500 g ai/ha, 0 to 100 scale, 0 is no effect, 100 is complete control
# [18] = approx. 10 d, read-out: Galium plant response rating
# [19] = approx. 10 d, read-out: Foxtail, Giant plant response rating
smiles,measurement,setting,value
CN1CC(c2cccc(Br)c2)C(C(=O)Nc2ccccc2F)C1=O (stereo not drawn) [Compound 1132],pest or weed control at 250 g/ha,[1],90%
same,pest or weed control at 250 g/ha,[2],40%
same,pest or weed control at 250 g/ha,[3],15%
same,pest or weed control at 250 g/ha,[4],60%
same,pest or weed control at 125 g/ha,"[5]; preemergence, 0 to 100 scale where 0 is no effect and 100 is complete control, approx. 10 d, read-out: Pigweed plant response rating",0%
same,pest or weed control at 500 g/ha,"[5]; preemergence, 0 to 100 scale where 0 is no effect and 100 is complete control, read-out: Pigweed plant response rating",0%
same,pest or weed control at 125 g/ha,[6]; [16],0%
same,pest or weed control at 500 g/ha,"[6]; 0 to 100 scale, 0 is no effect, 100 is complete control, read-out: Kochia plant response rating",0%
same,pest or weed control at 125 g/ha,[7],0%
same,pest or weed control at 500 g/ha,[7]; [17],30%
same,pest or weed control at 125 g/ha,[8],0%
same,pest or weed control at 500 g/ha,[8]; [17],0%
same,plant injury at 125 g/ha,[9],30%
same,plant injury at 500 g/ha,[9]; [17],70%
same,pest or weed control at 125 g/ha,[10]; [18],0%
same,pest or weed control at 500 g/ha,"[10]; 0 to 100 scale, 0 is no effect, 100 is complete control, read-out: Galium plant response rating",30%
same,plant injury at 125 g/ha,"[11]; 125 g ai/ha, postemergence, visual injury on 0 to 100 scale (0 no effect, 100 complete control), approx. 10 d, read-out: Corn plant response rating",60%
same,plant injury at 500 g/ha,"[11]; 500 g ai/ha, postemergence, 0 to 100 scale, 0 is no effect, 100 is complete control, read-out: Corn plant response rating",80%
same,pest or weed control at 125 g/ha,[12],0%
same,pest or weed control at 500 g/ha,[12]; [17],0%
same,pest or weed control at 125 g/ha,[13]; [19],80%
same,pest or weed control at 500 g/ha,"[13]; 0 to 100 scale, 0 is no effect, 100 is complete control, read-out: Foxtail, Giant plant response rating",90%
same,pest or weed control at 125 g/ha,"[14]; postemergence, visual injury on 0 to 100 scale (0 no effect, 100 complete control), approx. 10 d, read-out: Barnyardgrass plant response rating",90%
same,pest or weed control at 500 g/ha,"[14]; postemergence, 0 to 100 scale, 0 is no effect, 100 is complete control, read-out: Barnyardgrass plant response rating",90%
same,pest or weed control at 125 g/ha,"[15]; postemergence, visual injury on 0 to 100 scale (0 no effect, 100 complete control), approx. 10 d, read-out: Blackgrass plant response rating",30%
same,pest or weed control at 500 g/ha,"[15]; postemergence, 0 to 100 scale, 0 is no effect, 100 is complete control, read-out: Blackgrass plant response rating",50%
Cc1ccc([C@H]2CN(C)C(=O)[C@@H]2C(=O)Nc2ccccc2F)cc1C [Compound 1038],pest or weed control at 250 g/ha,[1],100%
same,pest or weed control at 250 g/ha,[2],0%
same,pest or weed control at 250 g/ha,[3],0%
same,pest or weed control at 250 g/ha,[4],65%
same,pest or weed control at 125 g/ha,"[5]; Preemergence, visual injury rating after approximately 10 d, read-out: Pigweed plant response rating (0 to 100 scale, 0 is no effect, 100 is complete control)",20%
same,pest or weed control at 500 g/ha,"[5]; preemergence, visual injury rating about 10 d after treatment, 0 to 100 scale (0 no effect, 100 complete control), read-out: Pigweed plant response rating",30%
same,pest or weed control at 125 g/ha,[6]; [16],40%
same,pest or weed control at 500 g/ha,"[6]; visual injury, 0 to 100 scale (0 no effect, 100 complete control), approx. 10 d, read-out: Plant response rating, Kochia",80%
same,pest or weed control at 125 g/ha,[7],20%
same,pest or weed control at 125 g/ha,[8],0%
same,plant injury at 125 g/ha,[9],20%
same,pest or weed control at 125 g/ha,[10]; [18],50%
same,pest or weed control at 500 g/ha,"[10]; visual injury, 0 to 100 scale (0 no effect, 100 complete control), approx. 10 d, read-out: Plant response rating, Galium",70%
same,"Corn plant response rating (crop injury, 0 = no effect, 100 = complete kill) at 125 g/ha","[11]; 125 g ai/ha, Postemergence, visual injury after approximately 10 d, 0 to 100 scale where 0 is no effect and 100 is complete control",60%
same,"Corn plant response rating (crop injury, 0 = no effect, 100 = complete kill) at 500 g/ha","[11]; 500 g ai/ha, postemergence, visual injury, 0 to 100 scale (0 no effect, 100 complete control), approx. 10 d",80%
same,pest or weed control at 125 g/ha,[12],0%
same,pest or weed control at 125 g/ha,[13]; [19],90%
same,pest or weed control at 500 g/ha,"[13]; visual injury, 0 to 100 scale (0 no effect, 100 complete control), approx. 10 d, read-out: Plant response rating, Foxtail, Giant",90%
same,pest or weed control at 125 g/ha,"[14]; Postemergence, visual injury after approximately 10 d, 0 to 100 scale where 0 is no effect and 100 is complete control, read-out: Plant response rating, Barnyardgrass",90%
same,pest or weed control at 500 g/ha,"[14]; postemergence, visual injury, 0 to 100 scale (0 no effect, 100 complete control), approx. 10 d, read-out: Plant response rating, Barnyardgrass",90%
same,pest or weed control at 125 g/ha,"[15]; Postemergence, visual injury after approximately 10 d, 0 to 100 scale where 0 is no effect and 100 is complete control, read-out: Plant response rating, Blackgrass",30%
same,pest or weed control at 500 g/ha,"[15]; postemergence, visual injury, 0 to 100 scale (0 no effect, 100 complete control), approx. 10 d, read-out: Plant response rating, Blackgrass",50%
